In patent publication US12351580B2, “NLRP3 modulators” (Innate Tumor Immunity, Inc., priority 2017, dated 2025):
pEC50: −log10 of the molar value.

What follows are compounds tested against T1, TLR8 (Homo sapiens, UniProt Q9NR97) (assay: In vitro human TLR8 binding reporter assay (HEK-Blue, NF-kB/AP1-inducible SEAP)). Settings: activity range symbols.
T1 construct: host or cells: HEK-Blue cells (human HEK) co-expressing TLR8 and an NF-kB/AP1-inducible SEAP reporter
T1 sequence (Q9NR97 27-1041): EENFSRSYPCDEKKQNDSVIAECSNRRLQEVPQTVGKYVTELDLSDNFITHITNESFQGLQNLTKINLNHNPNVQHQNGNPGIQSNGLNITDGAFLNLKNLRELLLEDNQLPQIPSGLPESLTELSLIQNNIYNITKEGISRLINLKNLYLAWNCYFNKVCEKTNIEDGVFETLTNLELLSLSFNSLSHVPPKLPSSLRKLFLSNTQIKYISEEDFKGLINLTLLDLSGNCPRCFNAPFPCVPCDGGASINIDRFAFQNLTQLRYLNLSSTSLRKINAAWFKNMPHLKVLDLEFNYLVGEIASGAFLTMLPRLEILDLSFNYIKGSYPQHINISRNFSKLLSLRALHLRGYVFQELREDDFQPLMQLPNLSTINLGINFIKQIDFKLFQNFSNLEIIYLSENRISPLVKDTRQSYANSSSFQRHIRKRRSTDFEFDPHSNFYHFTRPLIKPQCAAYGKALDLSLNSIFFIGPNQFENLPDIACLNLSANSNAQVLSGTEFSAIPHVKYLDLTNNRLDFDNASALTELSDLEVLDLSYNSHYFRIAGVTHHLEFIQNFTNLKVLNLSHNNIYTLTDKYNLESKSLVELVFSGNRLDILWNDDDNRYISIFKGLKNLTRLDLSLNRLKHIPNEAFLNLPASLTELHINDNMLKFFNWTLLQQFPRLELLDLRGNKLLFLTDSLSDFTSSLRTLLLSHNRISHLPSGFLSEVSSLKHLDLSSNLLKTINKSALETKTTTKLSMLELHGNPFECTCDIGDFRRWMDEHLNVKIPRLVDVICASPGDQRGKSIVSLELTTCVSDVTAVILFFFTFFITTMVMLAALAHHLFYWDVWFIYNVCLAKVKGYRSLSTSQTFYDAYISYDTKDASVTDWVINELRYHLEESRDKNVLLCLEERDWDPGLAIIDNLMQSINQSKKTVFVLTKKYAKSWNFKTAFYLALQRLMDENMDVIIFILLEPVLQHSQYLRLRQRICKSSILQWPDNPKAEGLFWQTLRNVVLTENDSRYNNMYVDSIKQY
Format: cell-based
In short: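 Reporter cells are plated at 15,000 per well and rested 24 h. Next day, test compounds or DMSO are dispensed, followed by 18 h incubation at 37 °C, 5% CO2.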

Row | SMILES | pEC50
1 | Nc1nc2cc(-c3cccnc3)ccc2c2[nH]c(CN3CC(c4ccccc4)CC3=O)nc12 (stereo not drawn) [Compound 333, 1-[(4-amino-7-pyridin-3-yl-1H-imidazo[4,5-c]quinolin-2-yl)methyl]-4-phenylpyrrolidin-2-one] | < 4.00
2 | COC(=O)CCCn1c(CN2CCCC2=O)nc2c(N)nc3ccccc3c21 [Compound 335] | < 4.00
3 | CN(C)C(=O)CCCn1c(CN2CCCC2=O)nc2c(N)nc3cc(Cl)ccc3c21 [Compound 337] | < 4.00
4 | CN(C)C(=O)CCCn1c(CN2CCCC2=O)nc2c(N)nc3cc(-c4cccnc4)ccc3c21 [Compound 340] | < 4.00
5 | COC(=O)CCCn1c(CN2CCCC2=O)nc2c(N)nc3cc(Br)ccc3c21 [Compound 341] | < 4.00
6 | COC(=O)CCCn1c(CN2CCCC2=O)nc2c(N)nc3cc(-c4cccnc4)ccc3c21 [Compound 342] | < 4.00
7 | Nc1nc2ccccc2c2[nH]c(CN3CCCCC3=O)nc12 [Compound 346] | < 4.00
8 | COC(=O)CCCn1c(CN2CCCCC2=O)nc2c(N)nc3ccccc3c21 [Compound 347] | < 4.00
9 | CN(C)Cc1nc2c(N)nc3cc(-c4cc[nH]n4)ccc3c2[nH]1 [Compound 348] | < 4.00
10 | CCN(C)Cc1nc2c(N)nc3cc(-c4cc[nH]n4)ccc3c2[nH]1 [Compound 349] | < 4.00
11 | Nc1nc2cc(-n3cccn3)ccc2c2[nH]c(CN3C[C@@H](c4ccccc4)CC3=O)nc12 [Compound 357] | < 4.00
12 | Nc1nc2cc(-n3cccn3)ccc2c2[nH]c(CN3C[C@H](c4ccccc4)CC3=O)nc12 [Compound 358] | < 4.00
13 | Nc1nc2cc(-c3cc[nH]n3)ccc2c2[nH]c(CN3C(=O)OCC3c3ccccc3)nc12 (stereo not drawn) [Compound 363] | < 4.00
14 | Nc1nc2cc(-c3cc[nH]n3)ccc2c2[nH]c(CN3CCOC3=O)nc12 [Compound 365] | < 4.00
15 | CN1CCN(Cc2nc3c(N)nc4cc(-c5cc[nH]n5)ccc4c3[nH]2)C1=O [Compound 368] | < 4.00
16 | CN(Cc1nc2c(N)nc3cc(-c4cc[nH]n4)ccc3c2[nH]1)C(=O)CO [Compound 370] | < 4.00
17 | CN(Cc1nc2c(N)nc3cc(-c4cc[nH]n4)ccc3c2[nH]1)C(=O)CN [Compound 372] | < 4.00
18 | CN(C)C(=O)N(C)Cc1nc2c(N)nc3cc(-c4cc[nH]n4)ccc3c2[nH]1 [Compound 375] | < 4.00
19 | CN(Cc1nc2c(N)nc3cc(-c4cc[nH]n4)ccc3c2[nH]1)C(=O)c1ccccc1 [Compound 376] | < 4.00

Row | SMILES | pEC50
20 | CN(Cc1nc2c(N)nc3cc(-c4cc[nH]n4)ccc3c2[nH]1)C(=O)c1nccs1 [Compound 377] | < 4.00
21 | CCN(C=O)Cc1nc2c(N)nc3cc(-c4cc[nH]n4)ccc3c2[nH]1 [Compound 379] | < 4.00
22 | CCN(Cc1nc2c(N)nc3cc(-c4cc[nH]n4)ccc3c2[nH]1)C(=O)CN(C)C [Compound 383] | < 4.00
23 | CCN(Cc1nc2c(N)nc3cc(-c4ccn(C)n4)ccc3c2[nH]1)C(=O)OC(C)(C)C [Compound 393] | < 4.00
24 | CCN(Cc1nc2c(N)nc3cc(-c4ccsc4)ccc3c2[nH]1)C(=O)OC(C)(C)C [Compound 397] | < 4.00
25 | CCNCc1nc2c(N)nc3cc(-n4cccn4)ccc3c2[nH]1 [Compound 398] | < 4.00
26 | CCNCc1nc2c(N)nc3cc(-c4cccs4)ccc3c2[nH]1 [Compound 399] | < 4.00
27 | CCNCc1nc2c(N)nc3cc(-c4ccsc4)ccc3c2[nH]1 [Compound 400] | < 4.00
28 | CNCc1nc2c(N)nc3cc(-c4cc[nH]n4)ccc3c2[nH]1 [Compound 401] | < 4.00
29 | CNCc1nc2c(N)nc3cc(-n4cccn4)ccc3c2[nH]1 [Compound 402] | < 4.00
30 | COc1ccc(Cn2c(CN3CCN(C)C3=O)nc3c(N)nc4cc(-c5cc[nH]n5)ccc4c32)cc1 [Compound 403] | < 4.00
31 | COc1ccc(Cn2c(CN3C(=O)OCC3COCc3ccccc3)nc3c(N)nc4cc(-c5cc[nH]n5)ccc4c32)cc1 (stereo not drawn) [Compound 404] | < 4.00
32 | COC(=O)N(C)Cc1nc2c(N)nc3cc(-c4cc[nH]n4)ccc3c2[nH]1 [Compound 405] | < 4.00
33 | CCN(Cc1nc2c(N)nc3cc(-c4cc[nH]n4)ccc3c2[nH]1)C(=O)OC [Compound 406] | < 4.00
34 | Nc1nc2cc(-c3cc[nH]n3)ccc2c2[nH]c(CN3C[C@@H](c4ccccc4)CC3=O)nc12 [Compound 407] | < 4.00
35 | Nc1nc2cc(-c3cc[nH]n3)ccc2c2[nH]c(CN3C[C@H](c4ccccc4)CC3=O)nc12 [Compound 408] | < 4.00
36 | COc1ccc(Cn2c(CN3C(=O)OCC3c3ccccc3)nc3c(N)nc4cc(-c5cc[nH]n5)ccc4c32)cc1 (stereo not drawn) [Compound 409] | < 4.00
37 | COc1ccc(Cn2c(Cn3cnccc3=O)nc3c(N)nc4cc(-c5cc[nH]n5)ccc4c32)cc1 [Compound 414] | < 4.00

Further lines, results first:

Row | pEC50 | SMILES
38 | < 4.00 | CCN(Cc1nc2c(N)nc3cc(-c4cc[nH]n4)ccc3c2[nH]1)C(=O)C1COC1 [Compound 417]
39 | < 4.00 | CCN(Cc1nc2c(N)nc3cc(-c4ccsc4)ccc3c2[nH]1)C(C)=O [Compound 419, N-((4-Amino-7-(thiophen-3-yl)-1H-imidazo[4,5-c]quinolin-2-yl)methyl)-N-ethylacetamide]
40 | < 4.00 | CCN(Cc1nc2c(N)nc3cc(-c4cc[nH]n4)ccc3c2n1C)C(=O)OC(C)(C)C [Compound 420]
41 | < 4.00 | Nc1nc2cc(-n3cccn3)ccc2c2[nH]c(CN3CCCCC3=O)nc12 [Compound 423]
42 | < 4.00 | CCN(Cc1nc2c(N)nc3cc(-c4cncc(F)c4)ccc3c2[nH]1)C(C)=O [Compound 427]
43 | < 4.00 | CCN(Cc1nc2c(N)nc3cc(-c4cc[nH]n4)ccc3c2[nH]1)C(=O)Cc1cccc(C)c1 [Compound 437, N-{[4-amino-7-(1H-pyrazol-3-yl)-1H-imidazo[4,5-c]quinolin-2-yl]methyl}-N-ethyl-2-(3-methylphenyl)acetamide]
44 | < 4.00 | CCN(Cc1nc2c(N)nc3cc(-c4cc[nH]n4)ccc3c2[nH]1)C(=O)c1cccnc1 [Compound 438, N-{[4-amino-7-(1H-pyrazol-3-yl)-1H-imidazo[4,5-c]quinolin-2-yl]methyl}-N-ethylpyridine-3-carboxamide]
45 | < 4.00 | CCN(Cc1nc2c(N)nc3cc(-c4cc[nH]n4)ccc3c2[nH]1)C(=O)c1ccccn1 [Compound 439, N-{[4-amino-7-(1H-pyrazol-3-yl)-1H-imidazo[4,5-c]quinolin-2-yl]methyl}-N-ethylpyridine-2-carboxamide]
46 | < 4.00 | CCN(Cc1nc2c(N)nc3cc(-c4cc[nH]n4)ccc3c2[nH]1)C(=O)CC(C)(C)O [Compound 440, N-{[4-amino-7-(1H-pyrazol-3-yl)-1H-imidazo[4,5-c]quinolin-2-yl]methyl}-N-ethyl-3-hydroxy-3-methylbutanamide]
47 | < 4.00 | CCN(Cc1nc2c(N)nc3cc(-c4cc[nH]n4)ccc3c2[nH]1)C(=O)c1cnccn1 [Compound 442, N-{[4-amino-7-(1H-pyrazol-3-yl)-1H-imidazo[4,5-c]quinolin-2-yl]methyl}-N-ethylpyrazine-2-carboxamide]

Same assay, conditions: numeric bounds

Row | pEC50 | SMILES
48 | < 5.00 | CCN(Cc1nc2c(N)nc3cc(-c4ccc(C)cc4)ccc3c2[nH]1)C(C)=O [Compound 422]
49 | < 5.00 | CCN(Cc1nc2c(N)nc3cc(Br)ccc3c2n1CC(C)C)C(C)=O [Compound 430]
50 | < 5.00 | CCN(Cc1nc2c(N)nc3cc(Br)ccc3c2n1CCCOC)C(C)=O [Compound 431]
51 | < 4.52 | N#Cc1ccc(-c2ccc3c(c2)nc(N)c2nc(CN4CCCC4=O)[nH]c23)cc1 [Compound 434]
52 | < 4.30 | CCOC(=O)N(CC)Cc1nc2c(N)nc3cc(-c4cc[nH]n4)ccc3c2[nH]1 [Compound 436, Ethyl N-{[4-amino-7-(1H-pyrazol-3-yl)-1H-imidazo[4,5-c]quinolin-2-yl]methyl}-N-ethylcarbamate]
53 | < 4.21 | CCN(Cc1nc2c(N)nc3cc(-c4cc[nH]n4)ccc3c2[nH]1)C(=O)c1ccc(OC)cc1 [Compound 441, N-{[4-amino-7-(1H-pyrazol-3-yl)-1H-imidazo[4,5-c]quinolin-2-yl]methyl}-N-ethyl-4-methoxybenzamide]
54 | < 4.21 | CCN(Cc1nc2c(N)nc3cc(-c4cc[nH]n4)ccc3c2[nH]1)C(=O)Cc1ccccc1 [Compound 443, N-{[4-amino-7-(1H-pyrazol-3-yl)-1H-imidazo[4,5-c]quinolin-2-yl]methyl}-N-ethyl-2-phenylacetamide]
